Assay results published in patent publication US20170119824A1, “A METHOD FOR THE TREATMENT OF GLIOBLASTOMA WITH WHARTON JELLY-MESENCHYMAL STEM CELLS (WJ-MSC) DERIVED FROM HUMAN UMBILICAL CORD” (priority 2014, published 2017).

system: glioblastoma tumor sample collected from patient; assay: Oncoprint explant tumor culture model, drug sensitivity test with H&E, Ki67 and caspase staining; format: cell-based, human; settings: glioma tumor samples in vitro, explant culture in artificial tumor microenvironment
Text: According to one embodiment herein, Ocoprint® an explants tumor culture model to identify the anti-tumor effect of commonly used chemotherapeutics agents as well as Wharton's jelly derived mesenchymal stem cells on gliomas samples. In the laboratory, a tumor microenvironment similar to the body or physiological environment is created artificially in a dish. The tumor sample collected from patient is placed in this micro-environment in dish. Different anticancer agents including the mesenchymal stem cells derived from umbilical cord are applied on the tumor in the micro-environment. This mimics the application of these anti-cancer agents against the tumor when the tumor is in the human body. Simultaneously a control sample is maintained without any treatment or application of anti-cancer agents. After a specific treatment time or incubation the tumor samples are collected from the microenvironment and are subjected to a set of laboratory tests. […] The tests also reveal that the anti-cancer agents are able to kill tumor cells, reduce the number of tumor cells or limit the growth of tumor cells or the anti-cancer agent is converting the aggressively growing tumor cells to a programmed cell death mode.
The tests which are applied for testing effect of anti-cancer agents on the tumor are 1) Hematoxylin and eosin staining (H & E staining), 2) Ki67 is staining and 3) Caspase staining.
The Ki67 staining indicates the growth pattern of tumor cells.
According to one embodiment herein, Ocoprint® an explants tumor culture model to identify the anti-tumor effect of commonly used chemotherapeutics agents as well as Wharton's jelly derived mesenchymal stem cells on glioma's samples. In the laboratory, a tumor microenvironment similar to the body or physiological environment is created artificially in a dish. The tumor sample collected from the patient is placed in this micro-environment in dish. Different anticancer agents including the mesenchymal stem cells derived from umbilical cord are applied on the tumor in the micro-environment. […]

| Oncoprint sensitivity report: response of glioma samples (responders / non-responders) | Compound |
| --- | --- |
| have not responded | CNC(=O)c1cc(Oc2ccc(NC(=O)Nc3ccc(Cl)c(C(F)(F)F)c3)cc2)ccn1 [sorafenib] |
| responded | Avastin: anti-cancer agent applied to the glioblastoma tumor |
| responded | O=C1CCC(N2C(=O)c3ccccc3C2=O)C(=O)N1 (stereo not drawn) [Thalidomide] |
